Laboratory results: ChEMBL document CHEMBL3046257, “Response of sweet maize (Zea mays L.) hybrids to halosulfuron” (Crop Prot, 2008)

Key:
Format in all cases: organism-based
[1] = tested on: Zea mays; test: Toxicity in Zea mays GSS9299 (maize) assessed as visible injury at 50 g ai/ha applied shortly post-emergence at three to five-leaf stage using backpack sprayer measured after 14 days; settings: in vivo, other, 336 h
[2] = tested on: Zea mays; test: Toxicity in Zea mays GH2298 (maize) assessed as visible injury at 50 g ai/ha applied shortly post-emergence at three to five-leaf stage using backpack sprayer measured after 14 days; settings: in vivo, other, 336 h
[3] = tested on: Zea mays; test: Toxicity in Zea mays GH2547 (maize) assessed as visible injury at 25 g ai/ha applied shortly post-emergence at three to five-leaf stage using backpack sprayer measured after 28 days; settings: in vivo, other, 672 h
[4] = tested on: Zea mays; test: Toxicity in Zea mays GG446 (maize) assessed as visible injury at 25 g ai/ha applied shortly post-emergence at three to five-leaf stage using backpack sprayer measured after 28 days; settings: in vivo, other, 672 h
[5] = tested on: Zea mays; test: Toxicity in Zea mays GH2041 (maize) assessed as visible injury at 50 g ai/ha applied shortly post-emergence at three to five-leaf stage using backpack sprayer measured after 14 days; settings: in vivo, other, 336 h
[6] = tested on: Zea mays; test: Toxicity in Zea mays GH2547 (maize) assessed as visible injury at 50 g ai/ha applied shortly post-emergence at three to five-leaf stage using backpack sprayer measured after 28 days; settings: in vivo, other, 672 h
[7] = tested on: Zea mays; test: Toxicity in Zea mays Empire (maize) assessed as visible injury at 50 g ai/ha applied shortly post-emergence at three to five-leaf stage using backpack sprayer measured after 28 days; settings: in vivo, other, 672 h
[8] = tested on: Zea mays; test: Toxicity in Zea mays GG446 (maize) assessed as visible injury at 25 g ai/ha applied shortly post-emergence at three to five-leaf stage using backpack sprayer measured after 14 days; settings: in vivo, other, 336 h
[9] = tested on: Zea mays; test: Toxicity in Zea mays GG446 (maize) assessed as plant height at 25 g ai/ha applied shortly post-emergence at three to five-leaf stage using backpack sprayer measured after 21 days (reference value: 85 cm); settings: in vivo, other, 504 h
[10] = tested on: Zea mays; test: Toxicity in Zea mays GSS9299 (maize) assessed as marketable yield at 25 g ai/ha applied shortly post-emergence at three to five-leaf stage using backpack sprayer (reference value: 13.2 T/ha ); settings: in vivo, other
[11] = tested on: Zea mays; test: Toxicity in Zea mays GG446 (maize) assessed as marketable yield at 50 g ai/ha applied shortly post-emergence at three to five-leaf stage using backpack sprayer (reference value: 20.0 T/ha ); settings: in vivo, other
[12] = tested on: Zea mays; test: Toxicity in Zea mays GH2298 (maize) assessed as plant height at 50 g ai/ha applied shortly post-emergence at three to five-leaf stage using backpack sprayer measured after 21 days (Rvb =80 cm); settings: in vivo, other, 504 h
[13] = tested on: Zea mays; test: Toxicity in Zea mays GH2684 (maize) assessed as plant height at 25 g ai/ha applied shortly post-emergence at three to five-leaf stage using backpack sprayer measured after 21 days (Rvb =73 cm); settings: in vivo, other, 504 h
[14] = tested on: Zea mays; test: Toxicity in Zea mays GH2298 (maize) assessed as visible injury at 50 g ai/ha applied shortly post-emergence at three to five-leaf stage using backpack sprayer measured after 28 days; settings: in vivo, other, 672 h
[15] = tested on: Zea mays; test: Toxicity in Zea mays GH2041 (maize) assessed as cob size at 50 g ai/ha applied shortly post-emergence at three to five-leaf stage using backpack sprayer (reference value: 285 g); settings: in vivo, other
[16] = tested on: Zea mays; test: Toxicity in Zea mays GH2547 (maize) assessed as visible injury at 50 g ai/ha applied shortly post-emergence at three to five-leaf stage using backpack sprayer measured after 14 days; settings: in vivo, other, 336 h
[17] = tested on: Zea mays; test: Toxicity in Zea mays GH2684 (maize) assessed as visible injury at 25 g ai/ha applied shortly post-emergence at three to five-leaf stage using backpack sprayer measured after 28 days; settings: in vivo, other, 672 h
[18] = tested on: Zea mays; test: Toxicity in Zea mays GH2547 (maize) assessed as visible injury at 25 g ai/ha applied shortly post-emergence at three to five-leaf stage using backpack sprayer measured after 14 days; settings: in vivo, other, 336 h
[19] = tested on: Zea mays; test: Toxicity in Zea mays GSS9299 (maize) assessed as visible injury at 50 g ai/ha applied shortly post-emergence at three to five-leaf stage using backpack sprayer measured after 7 days; settings: in vivo, other, 168 h
[20] = tested on: Zea mays; test: Toxicity in Zea mays GH2298 (maize) assessed as cob size at 50 g ai/ha applied shortly post-emergence at three to five-leaf stage using backpack sprayer (reference value: 307 g); settings: in vivo, other
[21] = tested on: Zea mays; test: Toxicity in Zea mays GH2547 (maize) assessed as cob size at 25 g ai/ha applied shortly post-emergence at three to five-leaf stage using backpack sprayer (reference value: 315 g); settings: in vivo, other
[22] = tested on: Zea mays; test: Toxicity in Zea mays GG214 (maize) assessed as visible injury at 50 g ai/ha applied shortly post-emergence at three to five-leaf stage using backpack sprayer measured after 28 days; settings: in vivo, other, 672 h
[23] = tested on: Zea mays; test: Toxicity in Zea mays GH2547 (maize) assessed as marketable yield at 25 g ai/ha applied shortly post-emergence at three to five-leaf stage using backpack sprayer (reference value: 16.7 T/ha ); settings: in vivo, other
[24] = tested on: Zea mays; test: Toxicity in Zea mays GH2298 (maize) assessed as marketable yield at 50 g ai/ha applied shortly post-emergence at three to five-leaf stage using backpack sprayer (reference value: 16.9 T/ha ); settings: in vivo, other
[25] = tested on: Zea mays; test: Toxicity in Zea mays GH2041 (maize) assessed as visible injury at 50 g ai/ha applied shortly post-emergence at three to five-leaf stage using backpack sprayer measured after 28 days; settings: in vivo, other, 672 h
[26] = tested on: Zea mays; test: Toxicity in Zea mays GG214 (maize) assessed as marketable yield at 50 g ai/ha applied shortly post-emergence at three to five-leaf stage using backpack sprayer (reference value: 14.2 T/ha ); settings: in vivo, other
[27] = tested on: Zea mays; test: Toxicity in Zea mays GH2298 (maize) assessed as cob size at 25 g ai/ha applied shortly post-emergence at three to five-leaf stage using backpack sprayer (reference value: 307 g); settings: in vivo, other
[28] = tested on: Zea mays; test: Toxicity in Zea mays GH2547 (maize) assessed as visible injury at 25 g ai/ha applied shortly post-emergence at three to five-leaf stage using backpack sprayer measured after 7 days; settings: in vivo, other, 168 h
[29] = tested on: Zea mays; test: Toxicity in Zea mays GH2041 (maize) assessed as marketable yield at 50 g ai/ha applied shortly post-emergence at three to five-leaf stage using backpack sprayer (reference value: 12.2 T/ha ); settings: in vivo, other
[30] = tested on: Zea mays; test: Toxicity in Zea mays Empire (maize) assessed as reduction in marketable yield at 50 g ai/ha applied shortly post-emergence at three to five-leaf stage using backpack sprayer; design: scale not given: the % may be the effect or the level left; settings: in vivo, other

Compound: COc1cc(OC)nc(NC(=O)NS(=O)(=O)c2c(C(=O)O)c(Cl)nn2C)n1 [HALOSULFURON]
- Activity [1]: 2%
- Activity [2]: 4%
- Activity [3]: 0%
- Activity [4]: 0%
- Activity [5]: 2%
- Activity [6]: 0%
- Activity [7]: 1%
- Activity [8]: 0%
- Activity [9]: 81 cm
- Crop_yield [10]: 12.3 tons/ha
- Crop_yield [11]: 19.6 tons/ha
- Activity [12]: 76 cm
- Activity [13]: 76 cm
- Activity [14]: 1%
- Activity [15]: 267 g
- Activity [16]: 0%
- Activity [17]: 0%
- Activity [18]: 0%
- Activity [19]: 2%
- Activity [20]: 308 g
- Activity [21]: 310 g
- Activity [22]: 1%
- Crop_yield [23]: 16.2 tons/ha
- Crop_yield [24]: 15.7 tons/ha
- Activity [25]: 0%
- Crop_yield [26]: 13.3 tons/ha
- Activity [27]: 315 g
- Activity [28]: 1%
- Crop_yield [29]: 11.3 tons/ha
- Activity [30]: 21%
